The source of these data is PubChem BioAssay AID248 (DTP/NCI, 2004).

Structures are written as SMILES. Values joined by “and” are separate entries in the source; they are usually repeats but may differ in a detail not shown here. Identical values can stand only once. Inconclusive results and toxic doses are left out.

The test system of the assay is L1210 leukemia ip in BDF1 mice, survival T/C. Description: NCI In Vivo Anticancer Drug Screen. Data for tumor model L1210 Leukemia (intraperitoneal) in B6D2F1 (BDF1) mice. The note with it: endpoint: mean survival time, higher = longer survival. In a few lines:
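Mice bearing the transplanted tumor received compound or vehicle. Survival of the treated group was divided by that of the vehicle-treated control group to give the ratio.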

Where [1] appears, read: dose: 50.0 mg/kg/injection, schedule: Q04DX003 (ip), vehicle: saline.
Setting [2] is: dose: 100.0 mg/kg/injection, schedule: Q01DX009 (ip), vehicle: saline.
[3] abbreviates: dose: 100.0 mg/kg/injection, schedule: Q04DX003 (ip), vehicle: saline.
Where [4] appears, read: dose: 200.0 mg/kg/injection, schedule: Q01DX009 (ip), vehicle: saline.
Setting [5] is: dose: 100.0 mg/kg/injection, schedule: Q01DX001 (ip), vehicle: saline.
The mark [6] stands for this setting: dose: 200.0 mg/kg/injection, schedule: Q01DX001 (ip), vehicle: saline.
[7] abbreviates: dose: 400.0 mg/kg/injection, schedule: Q01DX001 (ip), vehicle: saline.
Setting [8] is: dose: 100.0 mg/kg/injection, schedule: Q04DX003 (ip), vehicle: Klucel (hydroxypropylcellulose) (HPC).
The mark [9] stands for this setting: dose: 200.0 mg/kg/injection, schedule: Q04DX003 (ip), vehicle: Klucel (hydroxypropylcellulose) (HPC).
Where [10] appears, read: dose: 400.0 mg/kg/injection, schedule: Q04DX003 (ip), vehicle: Klucel (hydroxypropylcellulose) (HPC).

On to `CN(C)c1ccc(N=Nc2ccccc2)c2cccnc12`, for which the T/C is, setting by setting: (dose: 6.25 mg/kg/injection, schedule: Q01DX009 (ip), vehicle: DMSO) 103 % of control; (dose: 12.5 mg/kg/injection, schedule: Q01DX009 (ip), vehicle: DMSO) 94 % of control; (dose: 25.0 mg/kg/injection, schedule: Q01DX009 (ip), vehicle: DMSO) 96 % of control; (dose: 50.0 mg/kg/injection, schedule: Q01DX009 (ip), vehicle: DMSO) 92 % of control; (dose: 100.0 mg/kg/injection, schedule: Q01DX009 (ip), vehicle: DMSO) 96 % of control; (dose: 100.0 mg/kg/injection, schedule: Q04DX003 (ip), vehicle: DMSO) 94 % of control. In addition, the T/C reads like this: (dose: 200.0 mg/kg/injection, schedule: Q04DX003 (ip), vehicle: DMSO) 88 % of control; (dose: 400.0 mg/kg/injection, schedule: Q04DX003 (ip), vehicle: DMSO) 90 % of control.

Regarding `C[S+](C)Cc1ccc(C(=O)Oc2ccc([N+](=O)[O-])cc2)cc1`, the T/C runs as follows: (dose: 25.0 mg/kg/injection, schedule: Q01DX009 (ip), vehicle: saline) 100 % of control; (dose: 25.0 mg/kg/injection, schedule: Q04DX003 (ip), vehicle: saline) 97 % of control; (dose: 50.0 mg/kg/injection, schedule: Q01DX009 (ip), vehicle: saline) 98 % of control; under setting [1], 100 % of control; under setting [2], 96 % of control and 102 % of control; under setting [3], 100 % of control and 101 % of control. Also, the T/C under setting [4] was 87 % of control.

Consider `N#CC1=C(N)CCC(C#N)(c2ccccc2)C1` (stereo not drawn), for which the T/C (dose: 100.0 mg/kg/injection, schedule: Q01DX009 (ip), vehicle: saline with Tween-80) is 98 % of control and the T/C (dose: 200.0 mg/kg/injection, schedule: Q01DX009 (ip), vehicle: saline with Tween-80) is 91 % of control.

For `CCCCC[Si](C)(C)C`, the T/C under setting [5] is 103 % of control, the T/C under setting [6] is 97 % of control and the T/C under setting [7] was 105 % of control.

For `Cc1n[nH]c(=O)[nH]c1=O`, the T/C (dose: 3.0 mg/kg/injection, schedule: Q01DX009 (ip), vehicle: saline) is 95 % of control; the T/C (dose: 6.0 mg/kg/injection, schedule: Q01DX009 (ip), vehicle: saline) was 93 % of control; the T/C (dose: 12.0 mg/kg/injection, schedule: Q01DX009 (ip), vehicle: saline) is 93 % of control; the T/C (dose: 24.0 mg/kg/injection, schedule: Q01DX009 (ip), vehicle: saline) was 93 % of control; the T/C (dose: 48.0 mg/kg/injection, schedule: Q01DX009 (ip), vehicle: saline) is 97 % of control; the T/C (dose: 67.5 mg/kg/injection, schedule: Q01DX Z (ip), vehicle: saline) is 96 % of control. Further, the T/C is 105 % of control (dose: 125.0 mg/kg/injection, schedule: Q01DX Z (ip), vehicle: saline); 97 % of control (dose: 200.0 mg/kg/injection, schedule: Q01DX001 (ip), vehicle: acetone); 96 % of control (dose: 250.0 mg/kg/injection, schedule: Q01DX Z (ip), vehicle: saline); 103 % of control (dose: 400.0 mg/kg/injection, schedule: Q01DX001 (ip), vehicle: acetone); 105 % of control (dose: 500.0 mg/kg/injection, schedule: Q01DX Z (ip), vehicle: saline); 98 % of control (dose: 800.0 mg/kg/injection, schedule: Q01DX001 (ip), vehicle: acetone).

For the molecule `CCCCCCSc1n[nH]c(=O)[nH]c1=O`, the T/C was 97 % of control under setting [5], 95 % of control under setting [6] and 108 % of control under setting [7].

Take `O=C(Nc1cccc(Cl)c1)c1cc([N+](=O)[O-])ccc1O`: the T/C was 104 % of control (dose: 5.0 mg/kg/injection, schedule: Q01DX001 (ip), vehicle: other); 104 % of control (dose: 10.0 mg/kg/injection, schedule: Q01DX001 (ip), vehicle: other); 105 % of control (dose: 10.0 mg/kg/injection, schedule: Q02DX010 (ip), vehicle: carboxymethylcellulose (CMC)); 104 % of control (dose: 20.0 mg/kg/injection, schedule: Q01DX001 (ip), vehicle: other); 109 % of control (dose: 20.0 mg/kg/injection, schedule: Q02DX010 (ip), vehicle: carboxymethylcellulose (CMC)); 101 % of control (dose: 40.0 mg/kg/injection, schedule: Q01DX001 (ip), vehicle: other). Besides, the T/C is, setting by setting: (dose: 40.0 mg/kg/injection, schedule: Q02DX010 (ip), vehicle: carboxymethylcellulose (CMC)) 95 % of control; (dose: 80.0 mg/kg/injection, schedule: Q01DX001 (ip), vehicle: other) 95 % of control; (dose: 80.0 mg/kg/injection, schedule: Q02DX010 (ip), vehicle: carboxymethylcellulose (CMC)) 88 % of control; (dose: 100.0 mg/kg/injection, schedule: Q01DX001 (ip), vehicle: other) 86 % of control; (dose: 200.0 mg/kg/injection, schedule: Q01DX001 (ip), vehicle: other) 97 % of control; (dose: 400.0 mg/kg/injection, schedule: Q01DX001 (ip), vehicle: other) 114 % of control.

Take `CCOC(=O)/C=C(\c1ccccc1)c1ccc([N+](=O)[O-])cc1`: the T/C is 94 % of control (dose: 100.0 mg/kg/injection, schedule: Q01DX001 (ip), vehicle: Klucel (hydroxypropylcellulose) (HPC)); 105 % of control and 90 % of control (dose: 100.0 mg/kg/injection, schedule: Q01DX009 (ip), vehicle: Klucel (hydroxypropylcellulose) (HPC)); 93 % of control and 98 % of control (dose: 100.0 mg/kg/injection, schedule: Q04DX002 (ip), vehicle: Klucel (hydroxypropylcellulose) (HPC)); 107 % of control under setting [8]; 98 % of control (dose: 200.0 mg/kg/injection, schedule: Q01DX001 (ip), vehicle: Klucel (hydroxypropylcellulose) (HPC)); 103 % of control and 90 % of control (dose: 200.0 mg/kg/injection, schedule: Q01DX009 (ip), vehicle: Klucel (hydroxypropylcellulose) (HPC)). In addition, the T/C runs as follows: (dose: 200.0 mg/kg/injection, schedule: Q04DX002 (ip), vehicle: Klucel (hydroxypropylcellulose) (HPC)) 100 % of control and 106 % of control; under setting [9], 102 % of control; (dose: 400.0 mg/kg/injection, schedule: Q01DX001 (ip), vehicle: Klucel (hydroxypropylcellulose) (HPC)) 102 % of control; (dose: 400.0 mg/kg/injection, schedule: Q01DX009 (ip), vehicle: Klucel (hydroxypropylcellulose) (HPC)) 106 % of control and 110 % of control; (dose: 400.0 mg/kg/injection, schedule: Q04DX002 (ip), vehicle: Klucel (hydroxypropylcellulose) (HPC)) 98 % of control and 100 % of control; under setting [10], 98 % of control.

For `Cn1c2c(c(=O)n(C)c1=O)NC1(N2)C(=O)Nc2ccccc21` (stereo not drawn), the T/C reads like this: under setting [5], 101 % of control; under setting [6], 98 % of control; under setting [7], 101 % of control.

For `CC(=O)c1ccc(NC(=O)N(CCCl)N=O)cc1`, the T/C runs as follows: (dose: 2.0 mg/kg/injection, schedule: Q01DX001 (ip), vehicle: carboxymethylcellulose (CMC)) 122 % of control; (dose: 18.0 mg/kg/injection, schedule: Q01DX001 (ip), vehicle: carboxymethylcellulose (CMC)) 190 % of control; (dose: 25.0 mg/kg/injection, schedule: Q01DX001 (ip), vehicle: carboxymethylcellulose (CMC)) 152 % of control; (dose: 75.0 mg/kg/injection, schedule: Q01DX001 (ip), vehicle: carboxymethylcellulose (CMC)) 191 % of control; (dose: 150.0 mg/kg/injection, schedule: Q01DX001 (ip), vehicle: carboxymethylcellulose (CMC)) 160 % of control; (dose: 300.0 mg/kg/injection, schedule: Q01DX001 (ip), vehicle: carboxymethylcellulose (CMC)) 97 % of control.

Consider `O=P(CCCl)(OCCCl)N1CCCCC1` (stereo not drawn), for which the T/C reads like this: under setting [1], 104 % of control; under setting [2], 93 % of control; under setting [3], 104 % of control; under setting [4], 96 % of control; (dose: 200.0 mg/kg/injection, schedule: Q04DX003 (ip), vehicle: saline) 102 % of control; (dose: 400.0 mg/kg/injection, schedule: Q01DX009 (ip), vehicle: saline) 88 % of control. Further, the T/C (dose: 400.0 mg/kg/injection, schedule: Q04DX003 (ip), vehicle: saline) was 98 % of control.

As to `Cc1cc2c3ccccc3ncn2n1`, the T/C runs as follows: under setting [8], 101 % of control; under setting [9], 103 % of control; under setting [10], 109 % of control.
